Results on one compound are retold here after paper PMC6933707, “Palmitoylethanolamide counteracts substance P-induced mast cell activation in vitro by stimulating diacylglycerol lipase activity” (Journal of Neuroinflammation, 2019).

Values joined by “and” are separate entries in the source; they are usually repeats but may differ in a detail not shown here. Equal values may be shown once.

One experiment deals with human CB2 receptor (Homo sapiens, UniProt P34972). The experiment is described as follows: cAMP Hunter functional activity assay at the CB2 receptors. The format is cell-based. Further details: host or cells: CHO-K1. Particulars: 10 μM, highest concentration tested, CHO-K1 cells overexpressing human CB2. The protocol: The cAMP Hunter™ eXpress G protein-coupled receptor (GPCR) assay was performed in Chinese Hamster Ovary (CHO)-Kl cells overexpressing the human CB2 receptor. Gi-coupled cAMP modulation was measured following the manufacturer’s protocol (DiscoverX, Fremont, CA). CHO-K1 cells overexpressing the human CB2 receptor were plated into a 96-well plate (3× 10^4 cells/well) and incubated overnight at 37 °C in 5% CO2 atmosphere. The media were aspirated and replaced with 30 μl of assay buffer. Cells were incubated 30 min at 37 °C with 15 μl of 3× concentration-response solutions of 2-AG (0.01–50 μM), or PEA (10 μM), prepared in presence of cell assay buffer containing a 3× of 25 μM NKH-477 solution (a water-soluble analog of Forskolin) to stimulate adenylate cyclase and enhance basal cAMP levels. We also investigated the effect of PEA on 2-AG receptor activation by co-incubation. Therefore, cells were also incubated 30 min at 37 °C with 2-AG and PEA (10 μM) in the presence of NKH-477 to stimulate adenylate cyclase and enhance cAMP levels. […] Relative luminescence units (RLU) were measured by using a GloMax Multi Detection System (Promega Italia). […] The percentage of response was calculated by using the following formula: % RESPONSE = 100% × (1-(RLU of test compound-RLU of NKH-477 positive control)/(RLU of vehicle-RLU of NKH-477 positive control).
Sequence of human CB2 receptor (P34972 whole entry): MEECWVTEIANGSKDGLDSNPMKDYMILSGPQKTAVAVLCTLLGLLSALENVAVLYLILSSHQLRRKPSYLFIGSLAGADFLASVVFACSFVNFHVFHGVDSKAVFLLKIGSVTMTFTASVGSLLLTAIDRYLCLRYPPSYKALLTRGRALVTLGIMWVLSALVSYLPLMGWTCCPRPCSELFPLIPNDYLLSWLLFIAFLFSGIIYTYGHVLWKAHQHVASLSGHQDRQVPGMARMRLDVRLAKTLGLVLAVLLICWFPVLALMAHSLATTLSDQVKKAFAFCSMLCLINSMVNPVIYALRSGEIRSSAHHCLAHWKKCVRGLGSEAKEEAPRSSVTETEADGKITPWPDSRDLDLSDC

In experiment [1] the test system is RBL-2H3 cells. The experiment is described as follows: Toluidine blue staining, percentage of degranulation. The format is cell-based, rat. The protocol: SP-stimulated RBL-2H3 cells [plated on poly-L-lysine (33 μg/ml) coated slides (Deckglaser, 21 × 26 mm) into 6-well culture dishes at a cell density of 9 × 10^5 cells per well] were treated and incubated as described above for histamine release assay. After 15 min, the cells were fixed with paraformaldehyde at 4% for 20 min and incubated for 3 min with toluidine blue at 0.01% in 3% acetic acid. Subsequently, a 5 min wash in distilled water and dehydration in increasing alcohols (90%, 100%) were performed. Cells were then clarified by treatment with Xylol for 5 min and finally dried slides were mounted with the DPX histogram upright. The cells were observed using a Leica DMI6000 digital microscope, acquired using the Leica DFC 340FX digital camera connected to the microscope and analyzed using the LAS AF 2.2.0 software. Degranulated RBL-2H3 cells were counted and the percentage of degranulation (based on the number of colorable cells) was calculated.

Experiment [2] concerns RBL-2H3 cells. The experiment is described as follows: Histamine release assay (ELISA). The format is cell-based, rat. The protocol: RBL-2H3 cells were plated into 24-well culture dishes at a cell density of 2 × 10^5 cells per well, or into 6-well culture dishes at a cell density of 9 × 10^5 cells per well, for 1 day at 37 °C in 5% CO2 atmosphere. After 1 day, RBL-2H3 cells were stimulated with SP (10 μM) or vehicle (water) and incubated for 15 min at 37 °C in 5% CO2 atmosphere.
SP-stimulated RBL-2H3 cells (2 × 10^5 cells/well) were treated with PEA (10 μM) or vehicle (methanol) for 15 min at 37 °C in 5% CO2 atmosphere. SP-stimulated RBL-2H3 cells were also treated with a CB2 antagonist, AM630 (0.1 μM), in the presence and absence of PEA (10 μM), or JWH133 (0.1 μM) (a CB2 synthetic agonist), and incubated for the indicated time. SP-stimulated RBL-2H3 cells were also treated with 2-AG (0.1 and 1 μM), or co-treated with PEA (0.1 μM) and 2-AG (0.1 μM), and incubated for the indicated time. SP-stimulated RBL-2H3 cells were also co-treated with PEA (10 μM) and OMDM188 (10 μM) (a DAGL inhibitor), and incubated for the indicated time. After 15 min, the supernatants were collected and the amounts of secreted histamine were measured by using a histamine ELISA kit according to the manufacturer’s instructions (Abnova) and by using a reader GENios Pro (Tecan). Data were expressed as nanograms per milliliter of histamine.

Experiment [3] has as its system RBL-2H3 cells. The experiment is described as follows: LC-APCI-MS measurement of endogenous AEA, 2-AG and PEA levels. The format is cell-based, rat. The following applies: for increase of endogenous levels of 2-AG: 15 min. The protocol: RBL-2H3 cells (9 × 10^5 cells/well) were stimulated with SP (10 μM) and treated with PEA (10 μM) in the presence and absence of OMDM188 (10 μM), for 15 min at 37 °C in 5% CO2 atmosphere. After 15 min, cells and supernatants were collected and homogenized in a solution of CHCl3/CH3OH/Tris-HCl 50 mM pH 7.4 (2:1:1, v/v) containing 10 pmol of [^2H]8-AEA, [^2H]5-2-AG and [^2H]4-PEA as internal standards. The lipid-containing organic phase was dried down, weighed and pre-purified by open-bed chromatography on silica gel. Fractions obtained by eluting the column with a solution of CHCl3/CH3OH (90:10 by vol.) were analyzed by Liquid Chromatography-Atmospheric Pressure Chemical Ionization-Mass Spectrometry (LC-APCI-MS) using a Shimadzu (Shimadzu, Kyoto, Japan) HPLC apparatus (LC-10ADVP) coupled to a Shimadzu (LCMS-2020) quadrupole MS via a Shimadzu APCI interface. LC-APCI-MS analyses of 2-AG and PEA were carried out in the selected ion monitoring mode, using m/z values of 356 and 348 (molecular ions + 1 for deuterated and undeuterated AEA), 384.35 and 379.35 (molecular ions + 1 for deuterated and undeuterated 2-AG), and 304 and 300 (molecular ions + 1 for deuterated and undeuterated PEA). AEA, 2-AG and PEA levels were calculated on the basis of their area ratio with the internal deuterated standard signal areas, and their amounts (pmol) were normalized per mg of lipid extract.

Setting [4] is: SP (10 μM)-stimulated cells, compound 0.1 μM, 15 min, vs SP + vehicle.
The mark [5] stands for this setting: SP (10 μM)-stimulated cells, compound 10 μM, 15 min, vs SP + vehicle.
Where [6] appears, read: SP-stimulated cells co-treated with PEA 0.1 μM and 2-AG 0.1 μM, 15 min.
Setting [7] is: SP-stimulated cells co-treated with PEA 10 μM and AM630 0.1 μM, vs SP + vehicle or SP + AM630.

For `CCCCCCCCCCCCCCCC(=O)NCCO` [PEA, Palmitoylethanolamide], the “effect on NKH-477-induced cAMP levels (CB2 activation)” value at human CB2 receptor is recorded as “failed at decreasing cAMP levels”. In addition, the “number of degranulated cells” value in the experiment with RBL-2H3 cells [1] (setting [4]) is given as “comparable”; with RBL-2H3 cells [1] (setting [5]) it was “reduced the number of SP-degranulated RBL-2H3 cells”; with RBL-2H3 cells [1] (setting [6]) it was “able to reduce”; in the experiment with RBL-2H3 cells [1] (setting [7]) it was “comparable”; in the experiment on RBL-2H3 cells [1] (substance alone 10 μM, 15 min, vs vehicle) it was “no effect”. Moreover, the histamine release entry with RBL-2H3 cells [2] (setting [4]) is reported as “comparable”; in the experiment with RBL-2H3 cells [2] (setting [5]) it was “inhibited the release of histamine”; in the experiment on RBL-2H3 cells [2] (setting [6]), “able to reduce”; with RBL-2H3 cells [2] (setting [7]) it was “comparable”; in the experiment with RBL-2H3 cells [2] (substance alone 10 μM, 15 min, vs vehicle-treated cells), “No effect”. Also, the “increase of endogenous levels of 2-AG” value with RBL-2H3 cells [3] (PEA 10 μM alone, in the absence of SP, compared to vehicle-treated cells) was 1.8 fold and ~ 2 fold; with RBL-2H3 cells [3] (SP-stimulated cells treated with PEA 10 μM, compared to SP-stimulated cells treated with PEA vehicle), 1.6 fold and ~ 2 fold; with RBL-2H3 cells [3] (SP-stimulated cells treated with PEA 10 μM, compared to cells only treated with vehicle), 1.4 fold. Further, the “estimated increase of 2-AG concentration in cells” value with RBL-2H3 cells [3] (SP-stimulated cells treated with PEA 10 μM vs unstimulated cells) is 0.5 µM. Further, the “endogenous levels of AEA” value in the experiment with RBL-2H3 cells [3] (SP-stimulated cells treated with PEA 10 μM, vs SP + PEA vehicle) is listed as “no statistically significant increase”; with RBL-2H3 cells [3] (unstimulated cells treated with PEA alone 10 μM, vs vehicle), “statistically significant increase”. In the experiment on RBL-2H3 cells [3] (SP-stimulated cells treated with PEA 10 μM, estimated from 1 mg lipids per 10 mg (10 μl) cell pellet, 0.7 μM in unstimulated cells), the “estimated concentration of 2-AG in cells” value is given as “about 1.2 μM”. Also, the “increase of levels of AEA” value in the experiment on RBL-2H3 cells [3] (unstimulated cells following PEA treatment (discussion)) was ~ 2 fold.
